Molecules are shown by their SMILES.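 The compound was tested at five concentrations on cells cultured in 96-well plates, with a 48-hour exposure period. GI50 = concentration required for 50% inhibition of growth. TGI marks complete inhibition of growth.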

Holding throughout (assay): DTP human tumour cell line panel, 48 h
The subject of assay [1] is COLO 205 colon.
Assay [2] deals with HL-60(TB) leukemia.
The test system of assay [3] is SF-268 CNS.
Assay [4] concerns OVCAR-5 ovarian.
Assay [5] relates to DU-145 prostate.
Assay [6] relates to MDA-MB-231 breast.
For assay [7], the system named is HCT-15 colon.
Assay [8] deals with NCI-H23 lung.
The subject of assay [9] is HCC-2998 colon.
For assay [10], the system named is HOP-92 NSCLC.

On to `OC[C@H]1C[C@](O)(c2ccc(F)cc2)[C@@H](c2ccc(F)cc2)O1`, for which the GI50 in assay [1], in [2], in [3], in assay [4], in [5] and in assay [6] was above 100 µM each time. The GI50 in assay [7] was above 100 µM; in assay [8], above 100 µM; in assay [9], above 100 µM; in assay [10], 66 µM. For the same compound, the TGI in [1], in assay [2], in [3], in assay [4], in assay [5] and in assay [6] was above 100 µM in each case. Further, the TGI in [7], in assay [8], in assay [9] and in assay [10] was above 100 µM each time.
With `COc1cc(/C=C/C(=O)c2nc3cc(F)ccc3nc2C)cc(OC)c1OC`, the GI50 in [1] is 7.56 µM; in [2] it was 1.78 µM; in assay [3] it was 7.01 µM; in assay [4], above 100 µM; in [5], 3.09 µM; in assay [6], 8.49 µM. Moreover, the GI50 in assay [7] is 2.94 µM; in [8] it was above 47.9 µM; in assay [9], above 100 µM; in assay [10], 2.81 µM. Further, the TGI in [1], in assay [3], in assay [4], in assay [5], in assay [6] and in [7] was above 100 µM each time. In addition, the TGI in [8], in assay [9] and in [10] was above 100 µM in each case.
With `COc1cc2c3c(n(CCCN)c(=O)c2cc1OC)-c1ccc(N)cc1C3=O`, the GI50 in assay [1] is 0.554 µM; in [2], 0.461 µM; in assay [3], 1.64 µM; in [4], 7.87 µM; in assay [5], 1.64 µM; in [6], 3.09 µM. Moreover, the GI50 in assay [7] is 24.4 µM; in assay [8], 1.62 µM; in assay [9], 0.806 µM; in assay [10], 2.3 µM. The TGI in [1] was 10.2 µM; in [2], 4.91 µM; in assay [3], 31.6 µM; in assay [4], above 47.9 µM; in assay [5], 9.03 µM; in [6], 21.2 µM. Further, the total growth inhibition concentration (TGI) in [7] is above 100 µM; in [8] it was 9.75 µM; in assay [9] it was 6 µM; in [10] it was 15.3 µM.
For `CCCCCCCCCCN=C(N)c1ccc(N2CCN(c3ccc(C(N)=NCCCCCCCCCC)cc3)CC2)cc1`, the GI50 in [1] is 3.93 µM; in assay [2] it was 2.17 µM; in assay [3], 2.27 µM; in assay [4], 5.25 µM; in assay [5], 3.3 µM; in assay [6], 2.95 µM. Further, the GI50 was 14.1 µM in [7], 3.23 µM in assay [8], 3.51 µM in [9] and 5.88 µM in assay [10]. Moreover, the TGI was 15.7 µM in assay [1]; above 50 µM in assay [2]; 11.1 µM in assay [3]; above 50 µM in [4]; 26.1 µM in assay [5]; 17.9 µM in assay [6]. Also, the TGI in assay [7] was above 50 µM; in [8], above 50 µM; in [9] it was above 50 µM; in assay [10] it was 28.9 µM.
Regarding `O=c1c(Oc2ccc(F)cc2F)cc2cnc(NC3CCOCC3)nc2n1C1CC1`, the GI50 in assay [1], in assay [2], in assay [3], in [4], in assay [5] and in [6] was above 25 µM throughout. Further, the GI50 was above 25 µM in [7], above 25 µM in assay [8], above 25 µM in assay [9] and 0.172 µM in assay [10]. Further, the TGI in assay [1], in assay [2], in assay [3], in assay [4], in assay [5] and in assay [6] was above 25 µM throughout. The TGI in assay [7] is above 25 µM; in [8], above 25 µM; in [9] it was above 25 µM; in assay [10], 10.6 µM.
As for `O=C(O)CSc1cc(NS(=O)(=O)c2ccc(Br)cc2)c2ccccc2c1O`, the GI50 in [1] is 13.1 µM; in assay [2] it was 3.05 µM; in assay [3], 8.18 µM; in [4], 21.6 µM; in assay [5], 16.5 µM; in assay [6], 2.72 µM. The GI50 in assay [7] is 13.3 µM; in [8], 7.25 µM; in [9], 18.4 µM; in assay [10], 13.5 µM. Further, the TGI in assay [1] is 28.4 µM; in assay [2], above 26.8 µM; in [3], 23.4 µM; in assay [4] it was 47.1 µM; in [5] it was 30.1 µM; in [6], 8.08 µM. For the same compound, the TGI came out at 30.7 µM in assay [7], 38 µM in [8], 33.9 µM in [9] and 31.6 µM in assay [10].
Take `Oc1c(Br)cc(Cl)cc1C(c1cc(Cl)cc(Br)c1O)C(Cl)(Cl)Cl`: the GI50 in assay [1] is 1.87 µM; in assay [2] it was 3.02 µM; in [3], 3.61 µM; in assay [4], 3.58 µM; in assay [5], 4.74 µM; in assay [6], 1.97 µM. Besides, the GI50 was 1.39 µM in [7], 1.8 µM in [8], 2.63 µM in assay [9] and 0.457 µM in assay [10]. Also, the TGI was 3.51 µM in assay [1]; 7.6 µM in assay [2]; 15.2 µM in assay [3]; 13 µM in assay [4]; 16.2 µM in [5]; 5.98 µM in [6]. The TGI in [7] came out at 9.06 µM; in assay [8] it was 7.01 µM; in assay [9] it was 8.48 µM; in assay [10] it was 2.48 µM.

A word on the GI50: it is the concentration that inhibits growth by half. By TGI is commonly meant the concentration giving total growth inhibition.

Source of the values: PubChem BioAssay (NCI).
